Calls of active or inactive are those of the source.
Legend:
[1] = molecular target: Peroxisome proliferator-activated receptor gamma/Nuclear receptor coactivator 2 (Homo sapiens, UniProt P37231); assay type: functional;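 note: agonist potency for raising coactivator recruitment to the receptor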
[2] = molecular target: Peroxisome proliferator-activated receptor gamma/Nuclear receptor coactivator 1 (Homo sapiens, UniProt P37231); assay type: functional;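 note: agonist potency as compounds enhance coactivator SRC-1 recruitment to PPARgamma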
[3] = molecular target: Peroxisome proliferator-activated receptor gamma/Nuclear receptor coactivator 3 (Homo sapiens, UniProt P37231); assay type: functional;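 note: agonist potency for raising coactivator recruitment to the receptor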
[4] = Counterscreen for IDE inhibitors: Luminescence-based cell-based high throughput dose response assay to identify compounds that are cytotoxic to HEK cells. [Related pubchem assays: 434962 (Primary screen (IDE inhibitors in singlicate)), 449730 (Counterscreen (Cytotoxicity in triplicate)), 435028 (Confirmation (IDE inhibitors in triplicate)) …; assay type: functional; conditions: HEK293
[5] = molecular target: T1, Insulin-degrading enzyme (Homo sapiens, UniProt P14735); experiment: Dose Response: Fluorescence polarization-based cell-based high throughput dose response assay for inhibitors of insulin-degrading enzyme (IDE). [Related pubchem assays: 434962 (Primary screen (IDE inhibitors in singlicate)), 449730 (Counterscreen (Cytotoxicity in triplicate)), 435028 (Confirmation (IDE inhibitors in triplicate)), 434984 (Summary …; assay type: functional
T1 sequence (P14735 whole entry): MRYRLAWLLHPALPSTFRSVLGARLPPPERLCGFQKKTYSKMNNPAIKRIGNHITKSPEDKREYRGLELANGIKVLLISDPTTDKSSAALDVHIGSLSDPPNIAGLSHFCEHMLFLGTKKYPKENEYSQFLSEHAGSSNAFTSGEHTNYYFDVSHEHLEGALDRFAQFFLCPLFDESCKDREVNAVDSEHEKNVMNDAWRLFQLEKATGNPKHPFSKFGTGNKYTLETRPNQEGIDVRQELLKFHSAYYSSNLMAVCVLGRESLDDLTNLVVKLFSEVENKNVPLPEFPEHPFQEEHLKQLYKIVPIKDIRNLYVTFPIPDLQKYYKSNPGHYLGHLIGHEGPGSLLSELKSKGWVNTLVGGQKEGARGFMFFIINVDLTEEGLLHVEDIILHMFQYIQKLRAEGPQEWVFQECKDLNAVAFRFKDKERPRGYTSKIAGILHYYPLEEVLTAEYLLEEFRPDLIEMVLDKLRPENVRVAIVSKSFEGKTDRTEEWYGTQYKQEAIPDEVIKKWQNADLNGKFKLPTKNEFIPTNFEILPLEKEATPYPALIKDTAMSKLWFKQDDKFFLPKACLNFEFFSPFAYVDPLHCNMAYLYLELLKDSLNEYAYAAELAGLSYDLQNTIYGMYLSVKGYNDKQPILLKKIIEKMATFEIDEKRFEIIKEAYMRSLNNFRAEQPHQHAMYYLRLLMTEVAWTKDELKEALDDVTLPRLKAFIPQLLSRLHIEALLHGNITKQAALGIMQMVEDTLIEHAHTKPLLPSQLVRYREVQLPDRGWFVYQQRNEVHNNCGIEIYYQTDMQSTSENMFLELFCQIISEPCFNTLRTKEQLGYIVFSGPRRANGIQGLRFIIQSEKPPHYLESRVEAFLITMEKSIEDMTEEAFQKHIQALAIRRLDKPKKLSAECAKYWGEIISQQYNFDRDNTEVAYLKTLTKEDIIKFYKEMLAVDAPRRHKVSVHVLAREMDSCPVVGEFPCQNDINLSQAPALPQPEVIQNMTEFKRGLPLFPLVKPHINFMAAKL

[6] = molecular target: T2, Mannose-6-phosphate isomerase (Homo sapiens, UniProt P34949); experiment: inhibitors of human PMI, primary screen, biochemical, fluorescence intensity, coupled assay (AID 1209)
T2 sequence (P34949 whole entry): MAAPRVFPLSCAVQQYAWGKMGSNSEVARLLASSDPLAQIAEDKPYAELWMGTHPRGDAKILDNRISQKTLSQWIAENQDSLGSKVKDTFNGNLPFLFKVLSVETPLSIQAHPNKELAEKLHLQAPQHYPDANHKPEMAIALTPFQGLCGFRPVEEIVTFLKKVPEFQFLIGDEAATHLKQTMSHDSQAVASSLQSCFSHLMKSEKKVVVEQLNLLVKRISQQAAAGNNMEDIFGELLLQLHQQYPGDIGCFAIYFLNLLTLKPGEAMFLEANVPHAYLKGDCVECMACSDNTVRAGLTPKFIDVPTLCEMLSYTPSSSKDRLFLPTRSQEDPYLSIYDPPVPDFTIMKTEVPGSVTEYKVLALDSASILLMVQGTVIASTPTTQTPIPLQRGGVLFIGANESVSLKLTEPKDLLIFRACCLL

[7] = HEp-2 cell cytotoxicity, dose response, cytotoxicity control for RSV inhibitor project, HTS (AID 2410); assay type: functional; conditions: human respiratory syncytial virus
[8] = inhibitors of HIV Env-driven cell fusion, dose response, cherry-pick (AID 652057); assay type: functional, cell-based
[9] = ZM109 Env clade C HIV-1 fusion inhibitors, dose response, HeLa effector, CEM target cells, luciferase, cherry-pick (AID 652058); assay type: functional, cell-based
[10] = off-target signal loss in HeLa-CEM21 co-culture – HeLa F-luc CTL cells, cherry-picked, counter-screen for HIV-1 Env fusion inhibitor project, dose response (AID 652040); assay type: functional, cell-based;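 note: potency for signal decrease marking cytotoxic or nonspecific inhibition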
[11] = inhibitors of clade B AD8 Env fusion, dose response, cell-based, cherry-pick (AID 652062); assay type: functional;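 note: luciferase signal from cell-cell fusion driven by HIV-1 clade B AD8 Env; potency is for inhibitors of fusion seen as a drop in luminescence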
[12] = cells
[13] = molecular target: Mucolipin-3 (Homo sapiens, UniProt Q8TDD5); experiment: Dose response cell-based high-throughput screening assay for agonists of the transient receptor potential channel ML3 (TRPML3). [Related pubchem assays: 1526, 1424, 1448 ]; assay type: functional
[14] = molecular target: Ion channel NompC (Danio rerio, UniProt Q7T1G6); experiment: Fluorescence counterscreen assay for TRPML3 agonists: dose response cell-based high-throughput screening assay to identify agonists of the transient receptor potential channel N1 (TRPN1). [Related pubchem assays: 1526, 1424, 1448 ]; assay type: functional

Sequence of Mucolipin-3 (Q8TDD5 whole entry): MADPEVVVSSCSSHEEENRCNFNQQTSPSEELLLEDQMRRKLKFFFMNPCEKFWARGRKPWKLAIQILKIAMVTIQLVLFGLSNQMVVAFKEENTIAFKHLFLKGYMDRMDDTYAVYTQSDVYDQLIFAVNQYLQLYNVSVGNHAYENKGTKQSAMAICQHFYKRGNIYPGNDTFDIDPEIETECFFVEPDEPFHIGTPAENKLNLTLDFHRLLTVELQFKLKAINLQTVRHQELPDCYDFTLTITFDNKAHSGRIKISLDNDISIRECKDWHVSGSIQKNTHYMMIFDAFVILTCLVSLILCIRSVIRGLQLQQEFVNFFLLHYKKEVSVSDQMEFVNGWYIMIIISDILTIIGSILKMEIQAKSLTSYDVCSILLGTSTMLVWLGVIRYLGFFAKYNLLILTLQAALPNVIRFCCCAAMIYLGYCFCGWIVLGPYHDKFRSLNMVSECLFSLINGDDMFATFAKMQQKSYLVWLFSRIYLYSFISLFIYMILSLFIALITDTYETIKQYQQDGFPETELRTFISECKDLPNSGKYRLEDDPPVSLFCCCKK
Sequence of Peroxisome proliferator-activated receptor gamma/Nuclear receptor coactivator 1 (P37231 whole entry): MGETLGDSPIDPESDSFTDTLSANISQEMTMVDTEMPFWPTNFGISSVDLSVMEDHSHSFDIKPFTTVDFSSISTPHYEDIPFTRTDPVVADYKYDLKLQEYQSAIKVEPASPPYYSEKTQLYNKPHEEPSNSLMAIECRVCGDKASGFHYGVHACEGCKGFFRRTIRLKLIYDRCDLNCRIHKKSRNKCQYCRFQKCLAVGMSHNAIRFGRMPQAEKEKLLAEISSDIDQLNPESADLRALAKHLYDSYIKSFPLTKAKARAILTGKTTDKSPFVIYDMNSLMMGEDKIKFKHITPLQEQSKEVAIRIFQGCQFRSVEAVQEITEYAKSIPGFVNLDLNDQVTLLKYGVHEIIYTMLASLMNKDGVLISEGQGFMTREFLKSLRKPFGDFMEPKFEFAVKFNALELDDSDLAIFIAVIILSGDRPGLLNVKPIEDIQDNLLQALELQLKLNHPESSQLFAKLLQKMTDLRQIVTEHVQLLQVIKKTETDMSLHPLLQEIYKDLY
Sequence of Peroxisome proliferator-activated receptor gamma/Nuclear receptor coactivator 1 (Q15788 whole entry, further chain): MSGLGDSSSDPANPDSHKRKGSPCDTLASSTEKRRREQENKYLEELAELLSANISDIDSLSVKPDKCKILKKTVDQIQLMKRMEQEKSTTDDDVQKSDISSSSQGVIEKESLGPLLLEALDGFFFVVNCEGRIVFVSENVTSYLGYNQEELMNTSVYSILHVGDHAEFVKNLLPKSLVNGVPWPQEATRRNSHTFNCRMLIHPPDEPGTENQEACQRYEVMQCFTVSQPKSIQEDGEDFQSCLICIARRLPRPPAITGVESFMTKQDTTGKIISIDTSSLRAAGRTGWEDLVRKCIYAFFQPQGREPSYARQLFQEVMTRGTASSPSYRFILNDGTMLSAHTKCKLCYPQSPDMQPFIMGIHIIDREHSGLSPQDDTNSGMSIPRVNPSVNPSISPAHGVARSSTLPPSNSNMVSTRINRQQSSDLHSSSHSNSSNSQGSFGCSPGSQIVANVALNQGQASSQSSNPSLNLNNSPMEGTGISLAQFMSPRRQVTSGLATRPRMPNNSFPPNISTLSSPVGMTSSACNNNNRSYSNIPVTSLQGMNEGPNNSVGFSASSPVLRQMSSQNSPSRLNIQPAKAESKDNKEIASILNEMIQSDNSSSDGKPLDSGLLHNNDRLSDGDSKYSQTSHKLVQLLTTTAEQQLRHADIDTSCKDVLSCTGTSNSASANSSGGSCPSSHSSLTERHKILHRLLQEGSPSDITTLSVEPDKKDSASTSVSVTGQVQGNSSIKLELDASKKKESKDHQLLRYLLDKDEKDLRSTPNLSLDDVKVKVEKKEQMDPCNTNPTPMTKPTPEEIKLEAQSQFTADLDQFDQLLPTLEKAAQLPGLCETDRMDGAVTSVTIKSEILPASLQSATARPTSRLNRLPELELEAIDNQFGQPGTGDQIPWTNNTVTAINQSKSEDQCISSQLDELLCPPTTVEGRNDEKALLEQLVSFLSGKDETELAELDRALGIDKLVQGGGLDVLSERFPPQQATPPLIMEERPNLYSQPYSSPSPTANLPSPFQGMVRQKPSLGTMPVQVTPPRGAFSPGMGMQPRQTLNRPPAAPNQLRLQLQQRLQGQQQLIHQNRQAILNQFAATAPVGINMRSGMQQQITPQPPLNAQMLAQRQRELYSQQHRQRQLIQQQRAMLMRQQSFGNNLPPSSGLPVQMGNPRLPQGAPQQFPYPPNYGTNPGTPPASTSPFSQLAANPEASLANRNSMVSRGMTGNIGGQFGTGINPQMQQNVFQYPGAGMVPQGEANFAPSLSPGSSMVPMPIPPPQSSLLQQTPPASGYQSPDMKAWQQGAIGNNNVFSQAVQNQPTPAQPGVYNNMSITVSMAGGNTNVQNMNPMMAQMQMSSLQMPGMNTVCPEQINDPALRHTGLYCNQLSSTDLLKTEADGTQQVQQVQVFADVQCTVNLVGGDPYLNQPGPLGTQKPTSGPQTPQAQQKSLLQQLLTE
Sequence of Peroxisome proliferator-activated receptor gamma/Nuclear receptor coactivator 3 (P37231 whole entry): as the sequence (P37231 whole entry) above
Sequence of Peroxisome proliferator-activated receptor gamma/Nuclear receptor coactivator 3 (Q9Y6Q9 whole entry, further chain): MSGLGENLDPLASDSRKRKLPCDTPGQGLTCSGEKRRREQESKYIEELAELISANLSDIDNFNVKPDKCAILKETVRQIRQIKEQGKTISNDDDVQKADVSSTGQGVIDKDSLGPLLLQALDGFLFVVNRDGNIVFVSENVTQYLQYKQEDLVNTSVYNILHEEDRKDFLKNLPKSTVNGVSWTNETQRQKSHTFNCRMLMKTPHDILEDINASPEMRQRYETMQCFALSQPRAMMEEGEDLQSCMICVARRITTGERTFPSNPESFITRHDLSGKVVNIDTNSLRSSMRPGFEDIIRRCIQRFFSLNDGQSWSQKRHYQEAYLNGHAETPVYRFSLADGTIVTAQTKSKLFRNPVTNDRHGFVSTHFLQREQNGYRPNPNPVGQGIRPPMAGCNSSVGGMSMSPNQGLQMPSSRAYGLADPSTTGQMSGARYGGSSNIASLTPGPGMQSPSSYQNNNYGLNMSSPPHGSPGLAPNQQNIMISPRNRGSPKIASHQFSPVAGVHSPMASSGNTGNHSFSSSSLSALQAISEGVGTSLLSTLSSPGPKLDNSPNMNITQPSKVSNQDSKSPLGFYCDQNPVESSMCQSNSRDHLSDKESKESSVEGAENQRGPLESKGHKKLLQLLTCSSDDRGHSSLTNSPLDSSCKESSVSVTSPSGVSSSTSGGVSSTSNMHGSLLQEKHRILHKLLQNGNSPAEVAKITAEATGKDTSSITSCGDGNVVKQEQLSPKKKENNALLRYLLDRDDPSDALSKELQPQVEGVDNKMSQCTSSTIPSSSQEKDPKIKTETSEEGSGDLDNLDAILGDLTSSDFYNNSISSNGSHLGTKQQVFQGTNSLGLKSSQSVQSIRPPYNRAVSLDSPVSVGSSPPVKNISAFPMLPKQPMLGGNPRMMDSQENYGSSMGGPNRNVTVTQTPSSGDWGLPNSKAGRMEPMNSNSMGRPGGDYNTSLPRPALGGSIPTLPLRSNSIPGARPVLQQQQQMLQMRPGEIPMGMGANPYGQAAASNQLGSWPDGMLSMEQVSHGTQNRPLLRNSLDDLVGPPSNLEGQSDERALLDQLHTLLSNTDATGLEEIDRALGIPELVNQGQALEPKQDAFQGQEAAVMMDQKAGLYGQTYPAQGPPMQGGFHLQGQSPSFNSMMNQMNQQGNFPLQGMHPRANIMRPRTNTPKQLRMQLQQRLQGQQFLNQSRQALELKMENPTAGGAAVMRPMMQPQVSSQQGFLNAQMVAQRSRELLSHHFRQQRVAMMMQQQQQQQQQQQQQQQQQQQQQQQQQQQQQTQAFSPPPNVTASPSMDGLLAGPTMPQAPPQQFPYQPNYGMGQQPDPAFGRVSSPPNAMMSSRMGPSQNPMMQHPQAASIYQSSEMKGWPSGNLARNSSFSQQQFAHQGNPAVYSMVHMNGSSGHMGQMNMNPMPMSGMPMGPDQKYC

COc1cnn(-c2ccccc2)c(=O)c1N(C)C
EC50 [1]: > 79.4 µM (not active) | EC50 [2]: > 79.4 µM (not active) | EC50 [3]: > 79.4 µM (not active)

CC(=O)Nc1cc(/N=C/c2ccc(O)cc2O)c(Cl)cc1Cl
IC50 [4]: 16 µM (not active) | IC50 [5]: > 6.22 µM (active)

O=C(O)c1cccc(N/N=C/c2cccnc2)c1
IC50 [6]: > 50 µM (not active)

O=C(NCc1ccco1)c1ccc(Cn2c(=O)c3ccccc3n(Cc3ccc(Cl)cc3)c2=O)cc1
CC50 [7]: > 50 µM (active) | AC50 [8]: 0.669 µM (active) | AC50 [9]: 1.48 µM (active) | AC50 [10]: 0.421 µM (active) | AC50 [11]: 5.95 µM (active) | IC50 [12]: 0.58 µM (active)

COc1cc(C)ccc1S(=O)(=O)N1CCCCCC1
EC50 [13]: 2.84 µM (active) | EC50 [14]: > 29.9 µM (not active)
